PMC5033595, “The Effectiveness of Natural Diarylheptanoids against Trypanosoma cruzi: Cytotoxicity, Ultrastructural Alterations and Molecular Modeling Studies” (PLoS ONE, 2016)
Read-outs that look alike come from different tables or passages of the source.

How the values were obtained:
[1] = test system: Sterol 14α-demethylase (CYP51); test: Sterol content (lanosterol/ergosterol ratio) of treated epimastigotes by RP-HPLC; type: cell-based, Trypanosoma cruzi
Experimental: Since the detachment of the flagellar membrane was reported in T. cruzi and L. amazonensis treated with sterol biosynthesis inhibitors, the results obtained in microscopy study led us to investigate the sterol content of epimastigotes treated with CUR. Sterol 14α-demethylase (CYP51) is the enzyme involved in conversion of lanosterol to ergosterol in the parasite cell by oxidative removal of the sterol 14α-methyl group, being a key step in the biosynthesis of cell membrane 14 α-demethylated sterols and consequently in the maintenance of the cell viability. Thus, this enzyme is a promising target for chemotherapy of Chagas disease. The method reported by Pinto and co-workers for steroid determination on fungi was adapted to T. cruzi epimastigotes. After saponification followed by n-hexane extraction of a T. cruzi epimastigote pellet cultivated in the presence of two different concentrations of CUR, the organic layer was concentrated and submitted to RP-HPLC analysis (as shown in S5 Fig). […] It seems that in both treatments the parasite membrane-cytoskeleton linkage has been compromised.
6x10^6 epimastigotes of T. cruzi (Dm28c strain) were grown for 7 days in 30mL of BHI culture medium at 26°C. Some cultures were treated with curcumin (CUR, 5 and 10 μM), posaconazole (0.05 and 0.1 μM). The cultures were submitted to centrifugation at 2100 rpm for 10 minutes. […]

[2] = test system: T. cruzi epimastigotes (Dm28c strain); test: Anti-epimastigote effect (proliferation/survival, counting of viable forms); type: cell-based, Trypanosoma cruzi; settings: for activity on proliferation/survival of epimastigotes (in words): 100, 50, 25 and 2 μM; for IC50: read-out: IC50 T. cruzi
Experimental: The four natural compounds (CUR, DMC, BDMC and CC) were evaluated on the proliferation/survival of T. cruzi epimastigotes (Dm28c strain) in four different concentrations (100, 50, 25 and 2 μM). The parasites were cultivated for 7 days in BHI (Brain Heart Infusion) medium supplemented with 10% (v/v) fetal bovine serum. Controls were incubated solely and with 0.02% DMSO and the cultures were readily incubated with the natural compounds. Mobile epimastigote forms were considered as viable forms, and were counted on Neubauer chambers using phase contrast microscopy.
Epimastigotes of T. cruzi (Dm28c strain) were cultured at 27°C in Bacto™ Brain Heart infusion (BHI, Becton Dickinson Company, USA) supplemented with 10 μg.mL^-1 hemin, 0.02 g.L^-1 folic acid (from Sigma-Aldrich, USA) and 10% (v/v) of heat inactivated fetal bovine serum (FCS, Gibco/Life technologies).
Epimastigotes forms of T. cruzi, Dm28c strain (2x10^5 cells.mL^-1), were grown for 7 days in BHI culture medium at 26°C. Some cultures were treated with curcumin (CUR), demethoxycurcumin (DMC), bisdemethoxycurcumin (BDMC) or cyclocurcumin (CC) at concentrations of 100, 50, 25 and 2 μM. Viable forms were counted in Neubauer chambers under phase contrast microscopy using 40X objectives. Data representing three independent experiments.
Supplementary file pone.0162926.s002.tif: S2 Fig T. cruzi epimastigotes (Dm28c strain) were cultivated for 7 days in BHI (Brain Heart Infusion) culture medium supplemented with hemin, folic acid and 10% fetal bovine serum at 26°C, and readily treated with CUR, DMC, BDMC and CC at the indicated concentrations ranging from 2 to 100μM. Viable forms were counted on Neubauer chambers under phase microscopy at the seventh day. The data presented were obtained from three representative independent experiments. (TIF) Click here for additional data file.

[3] = test system: Peritoneal macrophages (Mø); type: cell-based; settings: murine peritoneal macrophages, 48 h, trypan blue
Experimental: (§1) The natural products have been subjected to a cytotoxicity assay on two distinct murine cell types. These compounds were tested upon macrophages (Mø), which are host cells during T. cruzi infection and splenocytes as lymphocytes are highly sensitive to external agents. The maintenance of cell viability at presence of the curcuminoids may indicate their low toxicity to mammalian cells. Peritoneal macrophages harvested from Balb/c mice were treated for 48 hours with concentrations of each test substance (S3 Fig). Splenocyte viability assays were performed in cells obtained from BALB/c mice and grown from a 5x10^5 cells.mL^-1 suspension (S4 Fig). For both cell types, viability was assessed by the trypan blue dye exclusion method, because colorimetric methods such as XTT were not suitable due to influence of the curcumin chromophoric properties. The results obtained on the evaluation of CUR, DMC, BDMC and CC against T. cruzi epimastigotes as well as the results of two host cell types treated with a 100 μM concentration of each compound are summarized in Table 1. […]
Supplementary file pone.0162926.s003.tif: S3 Fig Peritoneal macrophages obtained from BALB/c mice were cultured in triplicates at concentration of 5x10^5cells.mL^-1. […] Cell viability was assessed by exclusion method using trypan blue. […]

Splenocytes = type: cell-based; settings: murine splenocytes, 48 h, trypan blue
Experimental: as §1, with “properties.” for “properties. The results obtained on the evaluation of CUR, DMC, BDMC and CC against T. cruzi epimastigotes as well as the results of two host cell types treated with a 100 μM concentration of each compound are summarized in Table 1.”
Splenic lymphocytes were obtained from male BALB/c mice and plated at 5x10^5 cells.mL^-1 in triplicate. […] Viability was evaluated by the exclusion method using trypan blue and the data shown is representative of three independent experiments.
Supplementary file pone.0162926.s004.tif: S4 Fig Lymphocytes were obtained from the spleen of BALB/c mice and cultivated at concentration of 5x10^5 cells.mL^-1. […] Cell viability was assessed by exclusion method using trypan blue. […]

[4] = test system: T. cruzi epimastigotes (Dm28c strain); test: Flow cytometry analysis of the cell cycle (DNA content); type: cell-based, Trypanosoma cruzi; settings: 48 h
Experimental: The cultures treated with CUR, DMC and BDMC at a concentration of 100 μM led to an accumulation of, respectively, 45%, 52% and 40% of cells in the G2 phase, while in the non-treated cells, G2 population was 20%. The ability to arrest cells in the G2/M phase is a characteristic of microtubule-interacting agents. For this reason, we used paclitaxel as positive control, a known microtubule drug that is active against Trypanosomatidae organisms. Consistently with its action on microtubules, paclitaxel promoted an accumulation of 57% of cells in the G2 phase (Fig 9). Thus, the effects of curcuminoids in the cell cycle can be explained, at least partially, by the disturbance of microtubules, in agreement with the mechanism of interaction with tubulin proposed by the electron microscopy experiments. The arising of sub-G1 peaks possibly correspond to apoptotic cells, what is more prominent in paclitaxel than in the curcuminoids treated cultures and the small sub-G1populations indicate that curcuminoids promote low apoptosis (Fig 9).
Fig 9 Percentage of cells in different phases of cell cycle. Cells were treated with CUR and DMC at 10, 50 and 100 μM concentrations and with 100 μM BDMC. Paclitaxel (20 μM) was employed as positive control, and DMSO 0.02% as negative control. Results are the mean of the triplicates with standard deviation represented by error bars. Statistical significance relative to control * P<0.05, ** P<0.01 and *** P<0.001. The data shown were obtained from three independent experiments.
Epismatigotes forms of T. cruzi (Dm28c strain) were grown at 28°C in BHI medium at a concentration of 2x10^6 cells.mL^-1 in 12-well culture plates (TPP™, Switzerland). Test compounds (CUR, DMC and BMDC) were added in triplicate at concentrations of 10, 50 and 100 μM. The controls used were the vehicle (DMSO 0.02%) and paclitaxel at 20 μM concentration. After 48 h of incubation, parasites were fixed in ethanol 70% for 30 min at -20°C. Next, cells were centrifuged at 200 rcf for 8 min and washed with PBS. Then, the samples were incubated for 10 min with a permeabilization buffer (0.2 M Na2HPO4 and 0.005% Triton-X, pH 7.8). Finally, cells were centrifuged at 200 rcf for 8 min and stained in a solution of 50 μg.mL^-1 propidium iodide (PI) and 0.2 μg.mL^-1 RNAse for 30 min at room temperature. DNA content was analyzed measuring PI fluorescence in a BD […] cytometer (Becton Dickinson Company, USA) at 488 nm excitation wavelength and 585/40 nm emission filter.
Supplementary file pone.0162926.s006.tif: S6 Fig Representative fluorescence histograms showing DNA content of cell-cycle phases (Sub-G1, G1, S and G2) of parasites (Dm28c strain). […]

MCF-7 tumor cells = test system: MCF-7 tumor cells; parameters: method as in PMID 9714342; settings: cited from earlier work
[5] = Trypanosoma cruzi, 168 h, epimastigotes, Dm28c strain, 7 days

Molecule	activity on proliferation/survival of epimastigotes (in words) ([2]; 7 days)	cells in the G2 phase ([4]; 100 μM, non-treated cells 20%) [%]	IC50 [2, 5] [µM]	further results
CC[C@@H]([C@H](C)O)n1ncn(-c2ccc(N3CCN(c4ccc(OC[C@@H]5CO[C@@](Cn6cncn6)(c6ccc(F)cc6F)C5)cc4)CC3)cc2)c1=O [posaconazole, reference compound]				lanosterol/ergosterol ratio vs untreated control ([1]; posaconazole 0.05 and 0.1 μM, positive control): significant increase
demethoxycurcumin [DMC]	active	52		IC50 ([2]; epimastigotes, Dm28c strain, 7 days): 11.1 µM; LD50 Mø [3]: > 100 µM; LD50 Splenocytes (Splenocytes): > 100 µM
O=C(/C=C/c1ccc(O)cc1)CC(=O)/C=C/c1ccc(O)cc1 [BDMC, bisdemethoxycurcumin]	active	40	45.3	
COc1cc(/C=C/C2=CC(=O)CC(c3ccc(O)c(OC)c3)O2)ccc1O (centres unmarked) [CC, cyclocurcumin]	inactive		> 100	inhibition of MCF-7 tumor cells proliferation (MCF-7 tumor cells): inactive
COc1cc(/C=C/C(=O)CC(=O)/C=C/c2ccc(O)c(OC)c2)ccc1O [CUR, Curcumin]	active	45		IC50 ([2]; Trypanosoma cruzi, 168 h): 10.1 µM; lanosterol/ergosterol ratio vs untreated control ([1]; CUR 5 and 10 μM, 7 days): no significant difference
CC(=O)O[C@H]1C(=O)[C@@]2(C)[C@H]([C@H](OC(=O)c3ccccc3)[C@]3(O)C[C@H](OC(=O)[C@H](O)[C@@H](NC(=O)c4ccccc4)c4ccccc4)C(C)=C1C3(C)C)[C@]1(OC(C)=O)CO[C@@H]1C[C@@H]2O [paclitaxel, reference compound]				cells in the G2 phase ([4]; 20 μM, positive control): 57%
